Legend:
[1] = system: green algae, blue-green algae and other polluting algae; assay: Experiments in Beijing: suppression of algal growth by keeping water pH low; format: in vivo
Description: (§1) Subsequent experiments have verified that the extermination occurred when the pH value of the water is reduced to 5.8 or less. Dead algal remains can be filtered out when acidized polluted water by the new filtering system of aquitransistor/filter, and the filtered water is suitable as source of urban water supply. […] Those discoveries and previous developments were patented to teach the use of carbon dioxide as algicide in environmental rehabilitation of polluted lakes and streams for urban water supply. The two Patent applications are:
The Dianchi water with pH values ranging up to 9 was reduced to less than 6, and the empirical rate was estimated in experiments to reduce the pH value by three units. The amount of dissolving carbon dioxide into alkaline waters to combate pollution is substantial. To suppress the algal growth in streams, ponds, swimming pools or fish tanks, the quantity of carbon dioxide required is small. The purpose is less to reduce carbon dioxide emission, but to maintain the cleanness of the water body. The growth of algae can be suppressed if the pH of water is maintained at 7, through the dissolution of carbon dioxide in water. […] Where medium or small quantifies of carbon dioxide are required, we recommend the use of carbon dioxide produced by the acidization of carbonates. […]

[2] = system: polluting algae of the Dianchi water; assay: Experiments on the shore of polluted lake Dianchi: acidization of the water by carbon dioxide; format: in vivo
Description: as §1
The Dianchi water with pH values ranging up to 9 was reduced to less than 6, and the empirical rate was estimated in experiments to reduce the pH value by three units. The amount of dissolving carbon dioxide into alkaline waters to combate pollution is substantial. To suppress the algal growth in streams, ponds, swimming pools or fish tanks, the quantity of carbon dioxide required is small. The purpose is less to reduce carbon dioxide emission, but to maintain the cleanness of the water body. The growth of algae can be suppressed if the pH of water is maintained at 7, through the dissolution of carbon dioxide in water. The requirement is in the range of 10-100 grams carbon dioxide for one cubic-meter volume of water, depending the atmosphere-water interchange rate, and other factors. […] Since the main expenditure will be acidization, which is about 30$ per ton, the cost of maintaining algae-free swimming pool should be less than a few dollars per week. Very small metal containers for acidization of […] to produce carbon dioxide can be attached to fish tanks. The occasional bubbling of carbon dioxide to neutralize the alkalinity of water would not only be functional, but also fascinating to children owning the pet fish, and to their mother would not have to slave every month to clean up the algal pollution. Where medium or small quantifies of carbon dioxide are required, we recommend the use of carbon dioxide produced by the acidization of carbonates. The by-product CaCl2 is useful, but has little commercial value. […]

In the case of `O=C=O` [carbon dioxide], the “pH value of water at which algal growth is suppressed” value ([1]; pH kept at this value or below) is reported as ≤ 7.0 pH, the “carbon dioxide requirement to suppress algal growth (pH maintained at 7)” value ([1]; streams, ponds, swimming pools or fish tanks, depends on atmosphere-water interchange rate) is reported as 10-100 grams carbon dioxide for one cubic-meter volume of water and the “extermination of polluting algae after acidization of the water” value ([2]; Dianchi lake water acidized by carbon dioxide) is reported as “all be exterminated”. For the same molecule, the “empirical rate of CO2 to reduce the pH value by three units” value ([2]; Dianchi water, pH up to 9 reduced to less than 6) was 2 kg CO2 per ton water, the “pH of Dianchi water after treatment” value ([2]; starting pH values ranging up to 9, 2 kg CO2 per ton water) was “less than 6 pH” and the “pH value of the water at which extermination occurred” value ([2]; water acidized by carbon dioxide) was ≤ 5.8 pH.

— patent US20090227456A1, “Process for Combating Water Polluted By Algae” (priority 2006, published 2009)
